This note sets out measurements from US10214512B2, “Factor XIA inhibitors” (MERCK SHARP & DOHME CORP., priority 2015, dated 2019).

Broadly, the Ki is the equilibrium dissociation constant of an inhibitor or competing ligand from its target.

Sequence of purified Human plasma Kallikrein (P03952 391-638): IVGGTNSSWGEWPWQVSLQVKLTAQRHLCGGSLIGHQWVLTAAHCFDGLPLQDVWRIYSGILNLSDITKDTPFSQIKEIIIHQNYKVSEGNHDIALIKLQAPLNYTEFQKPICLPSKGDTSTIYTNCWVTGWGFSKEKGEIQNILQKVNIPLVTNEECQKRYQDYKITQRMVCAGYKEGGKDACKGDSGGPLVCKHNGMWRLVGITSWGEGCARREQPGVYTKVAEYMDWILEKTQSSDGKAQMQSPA
Sequence of purified Human plasma Kallikrein (P03952 20-390 partner): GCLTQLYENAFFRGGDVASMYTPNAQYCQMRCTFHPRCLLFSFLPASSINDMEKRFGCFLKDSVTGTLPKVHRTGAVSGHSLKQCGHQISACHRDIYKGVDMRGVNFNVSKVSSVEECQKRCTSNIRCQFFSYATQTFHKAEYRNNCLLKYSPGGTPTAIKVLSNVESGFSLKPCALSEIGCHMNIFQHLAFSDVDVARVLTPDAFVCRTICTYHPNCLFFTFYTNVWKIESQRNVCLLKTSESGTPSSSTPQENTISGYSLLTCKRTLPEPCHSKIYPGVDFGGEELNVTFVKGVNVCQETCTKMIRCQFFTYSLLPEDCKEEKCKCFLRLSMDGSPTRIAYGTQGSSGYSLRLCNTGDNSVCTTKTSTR

In the first assay the target is purified human Factor XIa (Homo sapiens (Human), UniProt P03951). Kind of assay: Factor XIa Assay. Format: biochemical. Particulars: purified human Factor XIa 40 pM; substrate Z-Gly-Pro-Arg-AFC 100 μM; 50 mM HEPES pH 7.4; read-out: Human FXIa Ki. The protocol: (§1) The effectiveness of a compound of the present invention as an inhibitor of Coagulation Factor XIa can be determined using a relevant purified serine protease, and an appropriate synthetic substrate. The rate of hydrolysis of the chromogenic or fluorogenic substrate by the relevant serine protease was measured both in the absence and presence of compounds of the present invention. Assays were conducted at rt or at 37° C. […] A decrease in the rate of fluorescence change in the presence of inhibitor is indicative of enzyme inhibition. Such methods are known to one skilled in the art. The results of this assay are expressed as the inhibitory constant, Ki.
Sequence of purified human Factor XIa (P03951 388-625): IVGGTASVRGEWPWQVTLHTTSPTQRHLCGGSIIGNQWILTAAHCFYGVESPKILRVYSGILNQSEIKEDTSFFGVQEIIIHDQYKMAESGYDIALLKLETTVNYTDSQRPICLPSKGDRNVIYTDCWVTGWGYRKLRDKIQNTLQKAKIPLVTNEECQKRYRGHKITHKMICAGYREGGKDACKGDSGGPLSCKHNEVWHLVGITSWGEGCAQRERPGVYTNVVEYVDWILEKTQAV
Sequence of purified human Factor XIa (P03951 19-387 partner): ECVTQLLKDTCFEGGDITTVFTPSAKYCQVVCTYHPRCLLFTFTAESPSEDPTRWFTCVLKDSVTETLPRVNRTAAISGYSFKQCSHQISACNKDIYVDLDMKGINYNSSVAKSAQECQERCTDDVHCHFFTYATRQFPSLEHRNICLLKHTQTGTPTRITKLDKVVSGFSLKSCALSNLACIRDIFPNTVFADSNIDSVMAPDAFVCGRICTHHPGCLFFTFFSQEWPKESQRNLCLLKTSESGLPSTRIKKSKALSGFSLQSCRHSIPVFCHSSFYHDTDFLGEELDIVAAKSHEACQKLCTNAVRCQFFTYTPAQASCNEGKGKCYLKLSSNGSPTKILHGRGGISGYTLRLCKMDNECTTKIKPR
Factor XIa determinations were made in 50 mM HEPES buffer at pH 7.4 containing 150 mM NaCl, 5 mM CaCl2, and 0.1% PEG 8000 (polyethylene glycol; JT Baker or Fisher Scientific). Determinations were made using purified human Factor XIa at a final concentration of 40 pM (Sekisui Diagnostics) and he synthetic substrate, Z-Gly-Pro-Arg-AFC, TFA salt (Sigma #C0980) at a concentration of 100 μM.
Times required to achieve equilibration between enzyme and inhibitor were determined in control experiments. Initial velocities of product formation in the absence (Vo) or presence of inhibitor (Vi) were measured. Assuming competitive inhibition, and that unity is negligible compared Km/[S], [I]/e, and [I]/e (where [S], [I], and e respectively represent the total concentrations, of substrate, inhibitor and enzyme), the equilibrium constant (Ki) for dissociation of the inhibitor from the enzyme can be obtained from the dependence of Vo/Vi on [I] shown in the following equation.
Regarding `O=C1CCCCC(c2ccc(-c3c(F)ccc(Cl)c3F)cn2)c2cccc(c2)-c2cc3c(O)cc(=O)[nH]c3cc2N1` (centres unmarked) [Example 49, 3-(5-(3-chloro-2,6-difluorophenyl)pyridin-2-yl)-1^4-hydroxy-1^1,1^2-dihydro-9-aza-1 (6,7)-quinolina-2(1,3)-benzenacyclononaphane-1^2,8-dione], the Ki came to 15.6 nM. On to `O=C1CCCC[C@@H](c2ccc(-c3cc(Cl)ccc3-n3cnnn3)c[n+]2[O-])c2cccc(c2)-c2cc(F)ccc2N1` [Example 2-b, (R) 5-(5-chloro-2-(1H-tetrazol-1-yl)phenyl)-2-(2^5-fluoro-4-oxo-3-aza-1(1,3),2(1,2)-dibenzenacyclononaphane-9-yl)pyridine 1-oxide], for which the inhibition constant (Ki) worked out at 83.1 nM.

Regarding `C[C@H]1CCC[C@H](c2ccc(-c3ccccc3-n3cc(Cl)nn3)c[n+]2[O-])c2cccc(c2)-c2c(cnn2C(F)F)NC1=O` (single isomer, unassigned) [Example 172-b], the inhibition constant (Ki) was 11.9 nM. As to `COC(=O)Nc1ccc2c(c1)NC(=O)CCCCC(c1ccc(-c3c(F)ccc(Cl)c3F)c[n+]1[O-])c1ccc(F)c-2n1` (centres unmarked) [Example 74, 5-(3-chloro-2,6-difluorophenyl)-2-(1^3-fluoro-2^4-((methoxycarbonyl)amino)-4-oxo-3-aza-1(2,6)-pyridina-2(1,2)-benzenacyclononaphane-9-yl)pyridine 1-oxide], the inhibition constant (Ki) came out at 180 nM.

Regarding `COC(=O)Nc1ccc2c(c1)NC(=O)CCCCC(c1ccc(-c3c(F)ccc(Cl)c3F)cn1)c1cc-2ncc1F` (centres unmarked) [Example 58, methyl (9-(5-(3-chloro-2,6-difluorophenyl)pyridin-2-yl)-1^5-fluoro-4-oxo-3-aza-1(2,4)-pyridina-2(1,2)-benzenacyclononaphane-2^4-yl)carbamate], the inhibition constant (Ki) came to 167 nM. Still for that read-out and setting: the result for `COC(=O)Nc1ccc2c(c1)NC(=O)CCCCC(c1ccc(-c3c(F)ccc(Cl)c3F)cn1)c1cc-2ncn1` (centres unmarked) [Example 64, methyl (9-(5-(3-chloro-2,6-difluorophenyl)pyridin-2-yl)-4-oxo-3-aza-1(4,6)-pyrimidina-2(1,2)-benzenacyclononaphane-2^4-yl)carbamate] reads 164 nM. Regarding `CCc1[nH]c2nc1-c1ccc(NC(=O)OC)cc1NC(=O)CCCC[C@@H]2c1ccc(-c2c(-n3cc(C(F)(F)F)cn3)ccc(Cl)c2F)c[n+]1[O-]` (single isomer, unassigned) [Example 136], the inhibition constant Ki was 168 nM.

With `COC(=O)Nc1cc(F)c2c(c1)NC(=O)C(C)CCCC(c1ccc(-c3c(F)ccc(Cl)c3F)c[n+]1[O-])c1cccc-2c1` (single isomer, unassigned) [Example 85-d, 5-(3-Chloro-2,6-difluorophenyl)-2-(2^6-fluoro-2^4-((methoxycarbonyl)amino)-5-methyl-4-oxo-3-aza-1(1,3),2(1,2)-dibenzenacyclononaphane-9-yl)pyridine 1-oxide], the Ki was 160 nM. `COC(=O)Nc1ccc2c(c1)NC(=O)CCCCC(c1ccc(-c3c(F)ccc(Cl)c3F)cn1)c1cc-2c(F)cn1` (centres unmarked) [Example 60, methyl (9-(5-(3-chloro-2,6-difluorophenyl)pyridin-2-yl)-1^5-fluoro-4-oxo-3-aza-1(4,2)-pyridina-2(1,2)-benzenacyclononaphane-2^4-yl)carbamate]: the Ki came out at 342 nM. The same measure, in the same setting: the result for `O=C1CCCCC(c2ccc(-c3c(F)ccc(Cl)c3F)c[n+]2[O-])c2nc(c[nH]2)-c2cc(C(=O)O)ccc2N1` (single isomer, unassigned) [Example 106-a, (Z)-2-(2^5-carboxy-4-oxo-1^1H-3-aza-1(4,2)-imidazola-2(1,2) -benzenacyclononaphane-9-yl)-5-(3-chloro-2,6-difluorophenyl)pyridine 1-oxide] reads 2.54 nM. On to `O=C1CCCCC(c2ccc(-c3cc(Cl)ccc3-n3cnnn3)cn2)c2nc(c[nH]2)-c2cc(F)ccc2N1` (single isomer, unassigned) [Example 10-a, (Z)-9-(5-(5-chloro-2-(1H-tetrazol-1-yl)phenyl)pyridin-2-yl)-2^5-fluoro-1^1H -3-aza-1(4,2)-imidazola-2(1,2)-benzenacyclononaphan-4-one], for which the Ki amounted to 83.8 nM.

With `O=C1CCCCC(c2ccc(-c3c(-n4cnnn4)ccc(Cl)c3F)cn2)c2cc(ncc2F)-c2cc(F)ccc2N1` (centres unmarked) [Example 59, 9-(5-(3-chloro-2-fluoro-6-(1h-tetrazol-1-yl)phenyl)pyridin-2-yl)-1^5,2^5-difluoro-3-aza-1(2,4)-pyridina-2(1,2)-benzenacyclononaphan-4-one], the Ki is 8.9 nM.

Turning to `COC(=O)Nc1cc(F)c2c(c1)NC(=O)C(C)CCCC(c1ccc(-c3c(F)ccc(Cl)c3F)c[n+]1[O-])c1cccc-2c1` (single isomer, unassigned) [Example 85-a, 5-(3-Chloro-2,6-difluorophenyl)-2-(2^6-fluoro-2^4-((methoxycarbonyl)amino)-5-methyl-4-oxo-3-aza-1(1,3),2(1,2)-dibenzenacyclononaphane-9-yl)pyridine 1-oxide], the Ki was more than 875 nM. Still for that read-out and setting: the result for `C[C@@H]1CCC[C@@H](c2ccc(-c3cc(Cl)ccc3-n3cc(Cl)nn3)c[n+]2[O-])c2cccc(c2)-c2c(cnn2C(F)F)NC1=O` (single isomer, unassigned) [Example 166-b] reads 195 nM.

With `COC(=O)Nc1ccc2c(c1)NC(=O)CCCC[C@H](c1ccc(-c3ccccc3-n3cc(C)cn3)c[n+]1[O-])c1nc-2c(C)[nH]1` (single isomer, unassigned) [Example 140], the inhibition constant (Ki) worked out at 40 nM. For `COC(=O)Nc1ccc2c(c1)NC(=O)C(C)CCCC(c1ccc(-c3c(F)ccc(Cl)c3F)c[n+]1[O-])c1cccc-2c1` (single isomer, unassigned) [Example 50-d, 5-(3-chloro-2,6-difluorophenyl)-2-(2^4-((methoxycarbonyl)amino)-5-methyl-4-oxo-3-aza-1(1,3),2(1,2)-dinenzenacyclononaphane-9-yl)pyridine 1-oxide], the inhibitory constant (Ki) came out at 209 nM. On to `C[C@H]1CCC[C@@H](c2ccc(-c3cc(Cl)ccc3-n3cc(Cl)nn3)c[n+]2[O-])c2cccc(c2)-c2c(cnn2C(F)F)NC1=O` (single isomer, unassigned) [Example 166-d], for which the inhibition constant Ki was more than 875 nM. Consider `COC(=O)Nc1ccc2c(c1)NC(=O)C[C@H]1C[C@@H]1C[C@H](c1ccc(-c3c(F)cccc3F)c[n+]1[O-])c1nc-2c(C)[nH]1` (single isomer, unassigned) [Example 155], for which the inhibitory constant (Ki) was 11.4 nM. `COC(=O)Nc1ccc2c(c1)NC(=O)CCCCC(c1ccc(-c3c(F)ccc(Cl)c3F)cn1)c1cccc-2c1` (centres unmarked) [Example 12, methyl (9-(5-(3-chloro-2,6-difluorophenyl)pyridin-2-yl)-4-oxo-3-aza-1(1,3),2(1,2)-dibenzenacyclononaphane-2^4-yl)carbamate]: the Ki worked out at 593 nM. In the case of `O=C1CCCC[C@H](c2ccc(-c3c(F)ccc(Cl)c3F)c[n+]2[O-])c2cccc(c2)-c2ccc(NC(=O)OCCO)cc2N1` [Example 46, (S)-5-(3-chloro-2,6-difluorophenyl)-2-(2^4-(((2-hydroxyethoxy)carbonyl)amino)-4-oxo-3-aza-1(1,3),2(1,2) -dinenzenacyclononaphane-9-yl)pyridine 1-oxide], the Ki is 0.24 nM. For the molecule `COC(=O)Nc1ccc2c(c1)NC(=O)CCCCC(c1ccc(-c3c(F)ccc(Cl)c3F)cn1)c1cc-2ccn1` (centres unmarked) [Example 62, methyl (9-(5-(3-chloro-2,6-difluorophenyl)pyridin-2-yl)-4-oxo-3-aza-1(4,2)-pyridina-2(1,2)-benzenacyclononaphane-2^4-yl)carbamate], the Ki was found to be 33 nM.

For another assay, the target named is purified Human plasma Kallikrein (Homo sapiens (Human), UniProt P03952). Kind of assay: Kallikrein Assay. Format: biochemical. The following applies: purified Human plasma Kallikrein 0.5 nM; substrate Acetyl-K-P-R-AFC; 50 mM HEPES pH 7.4; Ki from IC50 by Cheng Prusoff. On the procedure:
as §1, with “Kallikrein” for “Coagulation Factor XIa”
Kallikrein determinations were made in 50 mM HEPES buffer at pH 7.4 containing 150 mM NaCl, 5 mM CaCl2, and 0.1% PEG 8000 (polyethylene glycol; Fisher Scientific). Determinations were made using purified Human plasma Kallikrein at a final concentration of 0.5 nM (Enzyme Research Laboratories) and the synthetic substrate, Acetyl-K-P-R-AFC (Sigma # C6608) at a concentration of […].
Times required to achieve equilibration between enzyme and inhibitor were determined in control experiments. […] IC50 was determined by inflection point from a four parameter logistic curve fit. Ki was calculated using the Cheng Prusoff equation, Ki=IC50/(1+([S]/Km)).
The molecule `COC(=O)Nc1ccc2c(c1)NC(=O)CC[C@H](C)C[C@H](c1ccc(-c3c(F)cccc3OC(F)F)c[n+]1[O-])c1nc-2c(C)[nH]1` (single isomer, unassigned) [Example 152-b] displayed a Ki of 114 nM. Molecule `COC(=O)Nc1ccc2c(c1)NC(=O)CCCC[C@H](c1ccc(-c3cc(Cl)ccc3-n3cnnn3)c[n+]1[O-])c1cc-2ncc1F` (single isomer, unassigned) [Example 71] came in with a Ki of 0.33 nM.
